The record followed here is PubChem BioAssay AID248 (DTP/NCI, 2004).

“And” between values parts separate entries of the source, which are not always exact repeats. Identical values can stand only once. Toxic doses and inconclusive results are not listed.

This experiment concerns L1210 leukemia ip in BDF1 mice, survival T/C. As to the kind of experiment: NCI In Vivo Anticancer Drug Screen. Data for tumor model L1210 Leukemia (intraperitoneal) in B6D2F1 (BDF1) mice. As to conditions: endpoint: mean survival time, higher = longer survival. An outline of the steps:
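Survival endpoint. Drug-treated group vs vehicle group, expressed as T divided by C. Tumor passaged by transplantation.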

Setting [1] is: dose: 100.0 mg/kg/injection, schedule: Q01DX009 (ip), vehicle: Klucel (hydroxypropylcellulose) (HPC).
The mark [2] stands for this setting: dose: 200.0 mg/kg/injection, schedule: Q01DX009 (ip), vehicle: Klucel (hydroxypropylcellulose) (HPC).
Where [3] appears, read: dose: 400.0 mg/kg/injection, schedule: Q01DX009 (ip), vehicle: Klucel (hydroxypropylcellulose) (HPC).
The mark [4] stands for this setting: dose: 100.0 mg/kg/injection, schedule: Q04DX003 (ip), vehicle: saline.
[5] abbreviates: dose: 200.0 mg/kg/injection, schedule: Q04DX003 (ip), vehicle: saline.
The mark [6] stands for this setting: dose: 400.0 mg/kg/injection, schedule: Q04DX003 (ip), vehicle: saline.
The mark [7] stands for this setting: dose: 100.0 mg/kg/injection, schedule: Q04DX003 (ip), vehicle: Klucel (hydroxypropylcellulose) (HPC).
Where [8] appears, read: dose: 200.0 mg/kg/injection, schedule: Q04DX003 (ip), vehicle: Klucel (hydroxypropylcellulose) (HPC).
Setting [9] is: dose: 400.0 mg/kg/injection, schedule: Q04DX003 (ip), vehicle: Klucel (hydroxypropylcellulose) (HPC).
Setting [10] is: dose: 100.0 mg/kg/injection, schedule: Q01DX001 (ip), vehicle: saline.
Setting [11] is: dose: 50.0 mg/kg/injection, schedule: Q01DX009 (ip), vehicle: saline with Tween-80.
[12] abbreviates: dose: 100.0 mg/kg/injection, schedule: Q01DX009 (ip), vehicle: saline with Tween-80.
[13] abbreviates: dose: 200.0 mg/kg/injection, schedule: Q01DX009 (ip), vehicle: saline with Tween-80.
The mark [14] stands for this setting: dose: 100.0 mg/kg/injection, schedule: Q01DX001 (ip), vehicle: Klucel (hydroxypropylcellulose) (HPC).
The mark [15] stands for this setting: dose: 200.0 mg/kg/injection, schedule: Q01DX001 (ip), vehicle: Klucel (hydroxypropylcellulose) (HPC).
[16] abbreviates: dose: 400.0 mg/kg/injection, schedule: Q01DX001 (ip), vehicle: Klucel (hydroxypropylcellulose) (HPC).

With `COc1cc([N+](=O)[O-])cc2c1OC1(C=C2)N(C)c2ccccc2C1(C)C` (stereo not given), the T/C runs as follows: (dose: 25.0 mg/kg/injection, schedule: Q04DX002 (ip), vehicle: gum acacia) 111 % of control; (dose: 50.0 mg/kg/injection, schedule: Q04DX002 (ip), vehicle: gum acacia) 97 % of control and 100 % of control; (dose: 100.0 mg/kg/injection, schedule: Q04DX002 (ip), vehicle: gum acacia) 100 % of control; (dose: 200.0 mg/kg/injection, schedule: Q04DX002 (ip), vehicle: gum acacia) 108 % of control.
As for `COc1ccc(NC(=O)N(c2ccccc2)C(C)C)c(OC)c1`, the T/C reads like this: under setting [1], 97 % of control; under setting [2], 94 % of control; under setting [3], 102 % of control.
`CCC(C)C(NCc1ccccc1)C(=O)O` (stereo not given): the T/C is 108 % of control (dose: 100.0 mg/kg/injection, schedule: Q01DX001 (ip), vehicle: acetone); 102 % of control under setting [4]; 97 % of control (dose: 200.0 mg/kg/injection, schedule: Q01DX001 (ip), vehicle: acetone); 93 % of control under setting [5]; 90 % of control (dose: 400.0 mg/kg/injection, schedule: Q01DX001 (ip), vehicle: acetone); 96 % of control under setting [6].
For the molecule `COc1ccc(C2c3cc(OC)c(OC)cc3CC3C(=O)OCC32)cc1OC` (stereo not given), the T/C under setting [7] is 98 % of control, the T/C under setting [8] is 93 % of control and the T/C under setting [9] is 93 % of control.
Regarding `CCC/C=C(/C=O)CC`, the T/C by setting is: (dose: 100.0 mg/kg/injection, schedule: Q01DX001 (ip), vehicle: saline with Tween-80) 100 % of control; (dose: 200.0 mg/kg/injection, schedule: Q01DX001 (ip), vehicle: saline with Tween-80) 96 % of control; (dose: 400.0 mg/kg/injection, schedule: Q01DX001 (ip), vehicle: saline with Tween-80) 96 % of control.
Turning to `Nc1ccn(CCCCc2ccccc2)c(=O)n1`, the T/C by setting is: (dose: 100.0 mg/kg/injection, schedule: Q01DX001 (ip), vehicle: gum acacia) 93 % of control; (dose: 200.0 mg/kg/injection, schedule: Q01DX001 (ip), vehicle: gum acacia) 95 % of control; (dose: 400.0 mg/kg/injection, schedule: Q01DX001 (ip), vehicle: gum acacia) 91 % of control.
Consider `c1ccc2snnc2c1`, for which the T/C was 102 % of control (dose: 20.0 mg/kg/injection, schedule: Q01DX001 (ip), vehicle: saline); 104 % of control (dose: 40.0 mg/kg/injection, schedule: Q01DX001 (ip), vehicle: saline); 98 % of control (dose: 80.0 mg/kg/injection, schedule: Q01DX001 (ip), vehicle: saline).
Regarding `CC[n+]1ccc(Nc2ccc(NC(=O)c3ccc(C(=O)Nc4ccc(Nc5cc[n+](CC)c(N)n5)cc4)cc3)cc2)nc1N`, the T/C under setting [10] was 190 % of control; the T/C (dose: 133.0 mg/kg/injection, schedule: Q01DX009 (ip), vehicle: saline) is 88 % of control; the T/C (dose: 150.0 mg/kg/injection, schedule: Q01DX001 (ip), vehicle: saline) was 228 % of control; the T/C (dose: 225.0 mg/kg/injection, schedule: Q01DX001 (ip), vehicle: saline) is 203 % of control.
On to `O=C(O)C(c1ccccc1)C1CCCC1` (stereo not given), for which the T/C is, setting by setting: under setting [11], 102 % of control; under setting [12], 105 % of control; under setting [7], 98 % of control; under setting [13], 100 % of control; under setting [8], 100 % of control; under setting [9], 98 % of control.
For `Nc1cccc(OCCCOc2ccccc2)c1`, the T/C under setting [14] is 94 % of control, the T/C under setting [15] is 97 % of control and the T/C under setting [16] was 94 % of control.
`CC(=O)NCCCCCC(=O)O`: the T/C is, setting by setting: (dose: 25.0 mg/kg/injection, schedule: Q01DX009 (ip), vehicle: saline) 97 % of control; (dose: 50.0 mg/kg/injection, schedule: Q01DX009 (ip), vehicle: saline) 105 % of control; (dose: 50.0 mg/kg/injection, schedule: Q04DX003 (ip), vehicle: saline) 102 % of control; under setting [1], 98 % of control and 90 % of control; (dose: 100.0 mg/kg/injection, schedule: Q01DX009 (ip), vehicle: saline) 108 % of control; under setting [7], 101 % of control and 88 % of control. Also, the T/C is 103 % of control under setting [4]; 97 % of control and 101 % of control under setting [2]; 100 % of control (dose: 200.0 mg/kg/injection, schedule: Q01DX009 (ip), vehicle: saline); 101 % of control and 90 % of control under setting [8]; 104 % of control under setting [5]; 101 % of control under setting [3]. In addition, the T/C by setting is: (dose: 400.0 mg/kg/injection, schedule: Q01DX009 (ip), vehicle: saline) 100 % of control; under setting [9], 95 % of control and 101 % of control; under setting [6], 96 % of control; (dose: 800.0 mg/kg/injection, schedule: Q04DX003 (ip), vehicle: saline) 95 % of control.
With `CCCCCC1CCC(OC(C)=O)CC1` (stereo not given), the T/C under setting [14] was 99 % of control; the T/C under setting [7] is 101 % of control; the T/C under setting [15] was 96 % of control; the T/C under setting [8] is 95 % of control; the T/C under setting [16] was 96 % of control; the T/C under setting [9] is 93 % of control.
Turning to `CCCCCCCCCCCCNc1ccccn1`, the T/C is, setting by setting: (dose: 100.0 mg/kg/injection, schedule: Q04DX003 (ip), vehicle: saline with Tween-80) 88 % of control; (dose: 200.0 mg/kg/injection, schedule: Q04DX003 (ip), vehicle: saline with Tween-80) 94 % of control; (dose: 400.0 mg/kg/injection, schedule: Q04DX003 (ip), vehicle: saline with Tween-80) 96 % of control.
In the case of `O=P(O)(O)OCC1OC(O)(COP(=O)(O)O)C(O)C1O` (stereo not given), the T/C (dose: 100.0 mg/kg/injection, schedule: Q04DX002 (ip), vehicle: saline) was 100 % of control; the T/C (dose: 200.0 mg/kg/injection, schedule: Q04DX002 (ip), vehicle: saline) is 106 % of control; the T/C (dose: 400.0 mg/kg/injection, schedule: Q04DX002 (ip), vehicle: saline) was 95 % of control.
In the case of `CN(C)C1CCCCC1`, the T/C is, setting by setting: (dose: 25.0 mg/kg/injection, schedule: Q01DX009 (ip), vehicle: Klucel (hydroxypropylcellulose) (HPC)) 105 % of control; (dose: 50.0 mg/kg/injection, schedule: Q01DX009 (ip), vehicle: Klucel (hydroxypropylcellulose) (HPC)) 100 % of control; under setting [1], 114 % of control; under setting [7], 117 % of control; under setting [8], 101 % of control; under setting [9], 96 % of control.
For `Cc1ccc(Nc2cc(N)nc(N)n2)cc1Cl`, the T/C (dose: 100.0 mg/kg/injection, schedule: Q01DX Z (ip), vehicle: methylcellulose (MC)) is 101 % of control and the T/C (dose: 200.0 mg/kg/injection, schedule: Q01DX Z (ip), vehicle: methylcellulose (MC)) is 89 % of control.
Regarding `CCC1CN2CCc3cc(OC)c(OC)cc3C2CC1=O` (stereo not given), the T/C is, setting by setting: under setting [11], 102 % of control; under setting [12], 103 % of control and 108 % of control; under setting [13], 124 % of control.
As for `CCOC(=O)c1cnc(C)nc1Nc1ccccc1C`, the T/C runs as follows: under setting [7], 88 % of control; under setting [8], 98 % of control; under setting [9], 105 % of control.
Turning to `O=c1[nH]cc[nH]1`, the T/C is, setting by setting: under setting [10], 100 % of control; (dose: 178.0 mg/kg/injection, schedule: Q01DX009 (ip), vehicle: saline) 109 % of control; (dose: 200.0 mg/kg/injection, schedule: Q01DX001 (ip), vehicle: saline) 105 % of control; (dose: 267.0 mg/kg/injection, schedule: Q01DX009 (ip), vehicle: Klucel (hydroxypropylcellulose) (HPC)) 106 % of control; (dose: 267.0 mg/kg/injection, schedule: Q01DX009 (ip), vehicle: saline) 119 % of control; (dose: 267.0 mg/kg/injection, schedule: Q04DX003 (ip), vehicle: Klucel (hydroxypropylcellulose) (HPC)) 105 % of control. Besides, the T/C is 109 % of control (dose: 400.0 mg/kg/injection, schedule: Q01DX001 (ip), vehicle: saline); 117 % of control under setting [3]; 104 % of control under setting [9]; 109 % of control (dose: 600.0 mg/kg/injection, schedule: Q04DX003 (ip), vehicle: Klucel (hydroxypropylcellulose) (HPC)).
